Results from patent US10774082B2, “Quinazoline compound” (Astellas Pharma Inc., priority 2017, dated 2020).
Like-named read-outs stand apart in the source and are kept apart here.

What was measured:
[1] = test system: ERK phosphorylation (Thr 202/Tyr 204) in NCI-H1373 cells; experiment: ERK phosphorylation inhibitory action in NCI-H1373 (Cell ELISA); assay type: cell-based, Human; conditions: Homo sapiens, NCI-H1373, 2 h, read-out: IC50 (ERK phosphorylation inhibition)
Description: Evaluation of ERK Phosphorylation Inhibitory Action with Respect to Human KRAS G12C Mutation Positive Non-Small Cell Lung Cancer Strain NCI-H1373
The ERK phosphorylation inhibitory action by the test compound was evaluated by measuring phosphorylation of 202th threonine (Thr 202) and 204th tyrosine (Tyr 204) of ERK on the downstream of the KRAS signal by Cell ELISA.
NCI-H1373 cells (ATCC, CRL-5866) were seeded in 384 well plates (Greiner bio-one) at 36 μL/well each so as to be 2×10^4 cell per well. Cell culture was performed under the conditions of temperature of 37° C. in the presence of 5% CO2 by using RPMI 1640 medium (Sigma-Aldrich Co. LLC) containing 10% fetal bovine serum (GE Life Sciences).
The next day, the test compounds (six points in a range of final concentration 1,000 nM to 0.3 nM), final concentration 1 μM of Trametinib (GlaxoSmithKline Inc.; MEK inhibitor) as a positive control, and DMSO which is a solvent of the test compound as a negative control were diluted 100-fold with fresh medium, 4 μL each was added to each well, and then cultured for 2 hours. Immediately after culturing, 30 μL of 30% glyoxal solution (Wako: 40% glyoxal diluted with Phosphate Buffered Saline (PBS; Wako)) was added to each well, and the cells were left to stand at room temperature for one hour to be fixed. Thereafter, the supernatant was removed by centrifuging the plate (110×g for 7 seconds, unless otherwise stated below under the same conditions), and 20 μL of PBS containing 0.1% Triton X-100 (Amersham Biosciences Corp.) was added to each well. After being left to stand at room temperature for 10 minutes, the supernatant was removed by centrifugation, and the same operation was repeated. Next, 20 μL of PBS containing 0.5% SDS (Invitrogen) was added to each well, and the mixture was left to stand at room temperature for 30 minutes, and then centrifuged to remove the supernatant. Subsequently, 20 μL of a blocking solution (ODYSSEY Blocking Buffer; LI-COR Biosciences) was added to each well, and left to stand at room temperature for one hour. The supernatant was removed by centrifugation, and 10 μL of a blocking solution prepared by diluting ERK (Thr 202/Tyr 204) of a phosphorylation antibody (Cell Signaling Technology, Inc.) as a primary antibody to be ½, 500 amount with respect to a stock solution was added to each well and was left to stand at 4° C. for overnight.
The next day, a reaction liquid is removed by centrifuging the plate, 20 μL of 0.05% Tween-20-containing PBS (Thermo Scientific; 20×PBS Tween-20 diluted 20-fold with ion exchanged water) was added to each well, and each well was washed by removing the supernatant by centrifugation. Washing was performed three times in total. After washing, 10 μL of a blocking solution prepared by diluting IRDye 800CW Goat anti-Rabbit IgG (LI-COR Biosciences) as a secondary antibody to be 1/1,000 amount with respect to a stock solution was added to each well and was left to stand at room temperature for one hour. The reaction liquid was removed by centrifuging the plate, and each well was washed three times with 0.05% Tween-20-containing PBS in the same manner as after primary antibody reaction. The centrifugation after the third wash was 171×g for 17 seconds. After removal of the cleaning solution, the plate was left to air dry at room temperature for three hours or more and the fluorescent signal at 800 nm was measured by Aerius (LI-COR Biosciences).
When a signal value at the time of adding DMSO was set as 0% inhibition, and a signal value at the time of adding 1 μM of Trametinib was set as 100% inhibition, a value of 50% inhibition (IC50) was calculated through Sigmoid-Emax model nonlinear regression analysis.

NCI-H1373 cells = experiment: Anchorage-independent cell proliferation inhibitory action, NCI-H1373 spheroid three-dimensional culture; assay type: cell-based, Human; conditions: Homo sapiens, NCI-H1373, 144 h, read-out: IC50 (anchorage-independent cell proliferation inhibition)
Description: Evaluation of Anchorage-Independent Cell Proliferation Inhibitory Action with Respect to Human KRAS G12C Mutation Positive Non-Small Cell Lung Cancer Strain NCI-H1373
An anchorage-independent cell proliferation inhibitory action by the test compound was evaluated by a spheroid three-dimensional culture.
NCI-H1373 cells were seeded in cell low adsorption U bottom 384 well plates (Prime Surface: Sumitomo Bakelite Co., Ltd.) at 36 μL/well each so as to be 5×10^2 cell per well. The cell culture was performed under the same conditions as Test example 2.
The next day, the test compounds (six points in a range of final concentration 1,000 nM to 0.3 nM) and DMSO which is a solvent of the test compound as a negative control were diluted 100-fold with fresh medium, 4 μL each was added to each well. After culturing at 37° C. in the presence of 5% CO2 for six days, 20 μL of CellTiter Glo or to CellTiter Glo 2.0 (Promega Corporation) was added to each well. After stirring for one hour at room temperature using a plate mixer (FINEPCR), an emission signal was measured with ARVO X3 (PerkinElmer Co., Ltd.).
When a signal value in a DMSO treatment was set as 0% inhibition, and a signal value in cell-free medium only was set as 100% inhibition, a value of 50% inhibition (IC50) was calculated through Sigmoid-Emax model nonlinear regression analysis.

[2] = target: T1, KRAS G12C/SOS/c-Raf complex (Homo sapiens, UniProt P01116, G12C); experiment: KRAS G12C/SOS/c-Raf complex formation inhibitory action (TR-FRET); assay type: biochemical; conditions: one hour at room temperature, read-out: IC50 (KRAS G12C/SOS/c-Raf complex formation inhibition)
T1 construct: Biotinylated AviTag-KRAS G12C (amino acid region 1-185, GDP)
T1 sequence (P01116 1-185 isoform P01116-2 G12C, one chain of several): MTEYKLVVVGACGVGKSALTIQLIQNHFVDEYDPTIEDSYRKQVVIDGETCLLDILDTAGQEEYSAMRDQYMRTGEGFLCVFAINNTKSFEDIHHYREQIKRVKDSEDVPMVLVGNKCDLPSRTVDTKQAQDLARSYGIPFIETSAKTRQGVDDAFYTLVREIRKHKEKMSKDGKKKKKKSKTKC
Description: Evaluation of KRAS G12C/SOS/c-Raf Complex Formation Inhibitory Action
Human Recombinant KRAS G12C, SOS, and c-Raf protein were used, and with respect to the complex formation of these proteins, an inhibitory action of the test compound was examined through a time-resolved fluorescence resonance energy transfer (TR-FRET) method.
Biotinylated AviTag-KRAS G12C (amino acid region 1-185, GDP) (2.5 μL; 400 nM) dissolved in assay buffer (50 mM HEPES, 150 mM NaCl, 5 mM MgCl2, 0.05% Tween 20, pH 7.4) and test compound were added in a volume of 2.5 μL from 4,000 nM to 4 nM were added to 384 well plate (Corning Inc). Son of Sevenless (SOS) (amino acid region 564-1049, 2.5 μL; 1.3 μM) and c-Raf (amino acid region 51-131) GST containing GTP (Sigma-Aldrich Co. LLC) (2.5 μL; 130 nM and 4 μM of each) were added to the above mixture, and the resultant was left to stand for one hour at room temperature. Thereafter, a mixed solution (10 μL) of LANCE Ulight-anti-GST (120 nM, PerkinElmer. Co., Ltd) and LANCE Eu-W1024 labeled Streptoavidin (100 ng/mL, PerkinElmer. Co., Ltd) was added, and a fluorescence intensity on the condition of wavelength of 620 nm and 665 nm was measured by using EnVision 2103 Multilabel Reader (PerkinElmer Co., Ltd.) under the condition of excitation wavelength of 337 nm. […] In Tables, Ex represents Example numbers described later. In addition, in Tables, Compound C represents a test compound of Example I-59 disclosed in Pamphlet of International Publication No. WO 2016/164675, and the structures of Reference Example 1 and Reference Example 2 are indicated in Table 168 described below (the same shall apply hereinafter).

[3] = NCI-H1373 cells, cultured for 2 hours, 100% = 1 μM Trametinib
[4] = NCI-H1373 spheroid, six days, CellTiter Glo

Compound | IC50 [1, 3] | IC50 (NCI-H1373 cells; [4]) | IC50 [2] | IC50 [1] | IC50 (NCI-H1373 cells)
C=CC(=O)N1CC2(CCN(c3nc(N4CCC(N(C)C)CC4)nc4c(OCC(F)(F)F)c(-c5c(C)ccc6[nH]ncc56)c(C=C)cc34)CC2)C1 [Example 42] | 4.4 nM | 13 nM | 44 nM |  | 
C=CC(=O)N1CC2(CCN(c3nc(OC4CCN(C5CC5)CC4)nc4c(OCC)c(-c5c(C)ccc6[nH]ncc56)c(C5CC5)cc34)CC2)C1 [Example 43] |  |  | 50 nM | 5 nM | 6 nM
C=CC(=O)N1CC2(CCN(c3nc(OC4CCN(CC5CCOCC5)CC4)nc4c(OCC(F)(F)F)c(-c5c(C)ccc6[nH]ncc56)c(C=C)cc34)CC2)C1 [Example 44] |  |  | 41 nM | 5.1 nM | 7.6 nM
C=CC(=O)N1CC2(CCN(c3nc(OC4CCN(CCN5CCOCC5)CC4)nc4c(OCC(F)(F)F)c(-c5c(C)ccc6[nH]ncc56)c(C5CC5)cc34)CC2)C1 [Example 45] |  |  | 38 nM | 5.2 nM | 7.3 nM
C=CC(=O)N1CC2(CCN(c3nc(OC4CCN(CC5CC5)CC4)nc4c(OCC(F)(F)F)c(-c5c(C)ccc6[nH]ncc56)c(C=C)cc34)CC2)C1 [Example 46] | 5.5 nM | 8.1 nM | 48 nM |  | 
C=CC(=O)N1CC2(CCN(c3nc(OC4CCN(CCOC(C)C)CC4)nc4c(OCC(F)(F)F)c(-c5c(C)ccc6[nH]ncc56)c(C=C)cc34)CC2)C1 [Example 47] | 5.6 nM | 17 nM | 43 nM |  | 
C=CC(=O)N1CC2(CCN(c3nc(OC4CCN(C)CC4C)nc4c(OCC(F)(F)F)c(-c5c(C)ccc6[nH]ncc56)c(C=C)cc34)CC2)C1 (stereo not drawn) [Example 48] | 5.9 nM | 15 nM | 54 nM |  | 
C=CC(=O)N1CC2(CCN(c3nc(OC4CCN(CCOC)CC4)nc4c(OCC(F)(F)F)c(-c5c(C=C)ccc6[nH]ncc56)c(C=C)cc34)CC2)C1 [Example 49] | 2.9 nM | 4.6 nM | 41 nM |  | 
C=CC(=O)N1CC2(CCN(c3nc(OC4CCN(CCOC)CC4)nc4c(OC(F)F)c(-c5c(C)ccc6[nH]ncc56)c(C=C)cc34)CC2)C1 [Example 53] | 6.8 nM | 9.8 nM | 37 nM |  | 
C=CC(=O)N1CC2(CCN(c3nc(OC4CCN(CCC#N)CC4)nc4c(OCC)c(-c5c(C)ccc6[nH]ncc56)c(C5CC5)cc34)CC2)C1 [Example 54] | 7.2 nM | 6.8 nM | 60 nM |  | 
C=CC(=O)N1CC2(CCN(c3nc(OC4CCN(C(CF)CF)CC4)nc4c(OCC(F)(F)F)c(-c5c(C)ccc6[nH]ncc56)c(C=C)cc34)CC2)C1 [Example 55] | 7.4 nM | 43 nM | 83 nM |  | 
C=CC(=O)N1CC2(CCN(c3nc(OC4CCN(C)CC4)nc4c(OCc5cccc(OC)c5)c(-c5c(C)ccc6[nH]ncc56)c(C=C)cc34)CC2)C1 [Example 57] | 8.2 nM | 39 nM | 52 nM |  | 
C=CC(=O)N1CC2(CCN(c3nc(OC4CCN(C)CC4)nc4c(OCc5ccc(C)cc5)c(-c5c(C)ccc6[nH]ncc56)c(C=C)cc34)CC2)C1 [Example 58] | 8.4 nM | 17 nM | 57 nM |  | 
C=CC(=O)N1CC2(CCN(c3nc(N4CCN(CCOC)CC4)nc4c(OCC(F)(F)F)c(-c5c(C)ccc6[nH]ncc56)c(C=C)cc34)CC2)C1 [Example 59] | 8.4 nM | 26 nM | 63 nM |  | 
C=CC(=O)N1CC2(CCN(c3nc(OC4CCN(CCC(F)(F)F)CC4)nc4c(OCC(F)(F)F)c(-c5c(C)ccc6[nH]ncc56)c(C=C)cc34)CC2)C1 [Example 60] | 8.8 nM | 35 nM | 98 nM |  | 
C=CC(=O)N1CC2(CCN(c3nc(OC4CCN(C)CC4)nc4c(OCc5ccccc5)c(-c5c(C)ccc6[nH]ncc56)c(C=C)cc34)CC2)C1 [Example 61] | 8.8 nM | 17 nM | 56 nM |  | 
C=CC(=O)N1CC2(CCN(c3nc(OC4CCN(CCOC)CC4)nc4c(OCC(F)(F)F)c(-c5c(C)ccc6cn[nH]c56)c(C=C)cc34)CC2)C1 [Example 62] | 8.8 nM | 14 nM | 37 nM |  | 
C=CC(=O)N1CC2(CCN(c3nc(OC4CCN(C)CC4)nc4c(OCC(C)(F)F)c(-c5c(C)ccc6[nH]ncc56)c(C=C)cc34)CC2)C1 [Example 63] | 6.6 nM | 14 nM | 53 nM |  | 
C=CC(=O)N1CC2(CCN(c3nc(O[C@H]4CC[C@@H](N(C)C)CC4)nc4c(OCC(F)(F)F)c(-c5c(C)ccc6[nH]ncc56)c(C=C)cc34)CC2)C1 [Example 64] | 9.1 nM | 15 nM | 32 nM |  | 
C=CC(=O)N1CC2(CCN(c3nc(OC4CCN(C)CC4)nc4c(OCc5ccc(OC(F)F)cc5)c(-c5c(C)ccc6[nH]ncc56)c(C=C)cc34)CC2)C1 [Example 66] | 9.7 nM | 39 nM | 47 nM |  | 
